# Test results taken from US10940139B2, “Compounds that interact with the Ras superfamily for the treatment of cancers, inflammatory diseases, rasopathies, and fibrotic disease” (Shy Therapeutics LLC, priority 2017, dated 2021).
# Molecular target: KRas G12D/Q61H double mutant (Homo sapiens (Human), UniProt P01116, G12D/Q61H)
# Assay: Ras GTP binding domain inhibition assay (labeled GTP)
# Conditions: 20 μM compound; KRas G12D/Q61H double mutant; read-out: % Inhibition at 20 μM of K-Ras mutant and wild-type protein, KRas G12D Q61H
# Outline: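 Ni-plate capture of His-KRas (3-10 μg/ml, o/n, 4° C); Tris pH 7.5/MgCl2/DTT buffer, 1% DMSO. Cpd 20 μM or titration, 3 h RT. Cy3/Cy5-GTP 45 min RT, wash, fluorescence of bound GTP.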
# Chain of KRas G12D/Q61H double mutant (P01116-2 other isoform, or with tags, fused parts or gaps G12D/Q61H): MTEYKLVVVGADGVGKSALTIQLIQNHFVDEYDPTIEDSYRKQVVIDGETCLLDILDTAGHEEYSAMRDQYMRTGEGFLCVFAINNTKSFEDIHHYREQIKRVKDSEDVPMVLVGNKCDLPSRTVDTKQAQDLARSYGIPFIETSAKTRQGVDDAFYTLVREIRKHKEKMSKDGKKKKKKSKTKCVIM
row,SMILES,inhibition at 20 µM
1,O=C(CCOCc1ccccc1)Nc1nnc(-c2ccccn2)[nH]1,51 to 75%
2,CCOC(COCCNC(=O)c1ccsc1NC(=O)c1ccc(C(C)C)cc1)OCC,1 to 25%
3,O=C(Cc1ccc2c(c1)OCCO2)Nc1nc(-c2ccccn2)cs1 [drawing 3246],1 to 25%
4,O=c1[nH]c(CN(CCc2ccc(Cl)cc2)Cc2nc3ccsc3c(=O)[nH]2)nc2ccsc12,25 to 50%
5,Cc1nc(Cc2nnc(SCc3ccc(-c4ccccc4C#N)cc3)o2)cs1,1 to 25%
6,COc1ccc(-c2csc3nc(C)nc(N(C)Cc4ccco4)c23)cc1OC,25 to 50%
7,COc1ccc(CN(C)Cc2ccc(OC)c(SC(F)(F)F)c2)cc1F,25 to 50%
8,COC(=O)c1cc(NCc2cnc(C(C)(C)C)s2)ccc1Br,25 to 50%
9,O=[N+]([O-])c1ccc(O)c2ncccc12,25 to 50%
10,CCc1nc2ccccc2c(C(=O)OCC(=O)c2cc(C)n(CCOC)c2C)c1C,1 to 25%
11,Cc1sc2nc(-c3ccccn3)nc(NCC(=O)N3CCC(O)CC3)c2c1-c1ccccc1,25 to 50%
12,FC(F)n1ccnc1CCNCc1csc(COc2ccccc2)n1,51 to 75%
13,Cn1ccnc1C(NCCOc1ccc2cc(Br)ccc2c1)C1CC1 (centres unmarked),1 to 25%
14,CCSC1CCCCC1NCc1nc(-c2ccc(OC(F)F)c(OC)c2)no1 (centres unmarked),25 to 50%
15,CCOC(=O)c1ccc2c(c1)n(Cc1occc1C(=O)OC)c(=O)n2CC,1 to 25%
16,FC(F)Oc1ccc(N2CCOC(c3ccc(Br)cc3)C2)nc1 (centres unmarked),25 to 50%

# The next lines start with the values.
row,inhibition at 20 µM,SMILES
1,1 to 25%,CN(Cc1ccccc1N1CCOCC1)C(=O)c1ccc(OCc2ccccc2)cc1
2,25 to 50%,COC(=O)C(C)CN(Cc1ccc(OCc2ccc([N+](=O)[O-])cc2)c(OC)c1)C1CC1 (centres unmarked)
3,25 to 50%,CCCN(CC1CC1)S(=O)(=O)Oc1ccc(N(C)S(=O)(=O)c2cccs2)cc1
4,25 to 50%,CCOc1ccc(CSc2nnc(-c3ccco3)n2-c2ccccc2)cc1OCC
5,25 to 50%,CCc1oc2ccccc2c1CN(C)C(=O)c1cccc(OCc2c(C)noc2C)c1
6,1 to 25%,CCN(C(=O)c1cnn(-c2ccccc2)n1)c1ccccc1
7,25 to 50%,COCCNc1ccc([N+](=O)[O-])cc1C(=O)OCCOc1ccccc1
8,25 to 50%,O=C(COc1ccccc1C(=O)c1cnn(-c2ccccc2)c1)NCC1CCCCC1
9,25 to 50%,CN(C)S(=O)(=O)c1cccc(CSCCOc2cccc(Cl)c2)c1
10,25 to 50%,CCOc1ccc(S(=O)(=O)N(CC(=O)N2CCCc3ccccc32)Cc2ccco2)cc1
11,25 to 50%,CCc1ccccc1OCC(=O)N1N=C(c2ccccc2)CC1(O)C(F)(F)F (centres unmarked)
12,25 to 50%,CCCn1c(CNc2cccc(Cl)c2OCCOCC)nc2cc(S(=O)(=O)N(C)C)ccc21
13,25 to 50%,CCN(CC)S(=O)(=O)c1ccc(C(C)NCc2ccc(Cl)s2)cc1 (centres unmarked)
14,25 to 50%,COc1cccc(CN(C)S(=O)(=O)N(C)Cc2ccc(F)cc2)c1
15,25 to 50%,COc1ccccc1CN(Cc1cccs1)C(=O)c1ccc(COC(C)C)cc1
16,25 to 50%,OCC1(Cc2ccccc2)CCCN1c1nc(-c2ccccn2)nc2c1CCC2 (centres unmarked)
17,51 to 75%,CC(COc1ccc(Oc2ccccc2)cc1)Oc1ccc(C(F)(F)F)cn1 (centres unmarked)
18,25 to 50%,CCC(C)Sc1ccc(NC(=O)c2ccccc2OCCOC)c(C(F)(F)F)c1 (centres unmarked)
19,1 to 25%,COc1cccc(N2CCN(C(=O)c3ccccc3SCC(=O)N3CCc4ccccc43)CC2)c1

# Same assay, conditions: 20 μM compound; read-out: % Inhibition at 20 μM KRas G12D Q61H
row,SMILES,inhibition at 20 µM
1,O=c1nc(-c2ccccn2)[nH]c2c1cnn2-c1cccc(C(F)(F)F)c1,25 to 50%
2,COc1ccc(OCCSc2nnc(C(C)Oc3ccc(F)cc3)o2)cc1 (centres unmarked),25 to 50%
3,CCOC(=O)c1ccc(C(=O)NCCc2ccc(C(F)(F)F)cc2)nc1C,25 to 50%
4,N#Cc1ccccc1N1CCN(C(=O)c2csc3c(O)nc(-c4ccccn4)nc23)CC1 [drawing 2722],1 to 25%
5,CCOC(=O)CCN(Cc1cccnc1)c1nc(C(F)(F)F)ccc1C#N,1 to 25%
6,Cc1c(C(=O)Nc2nc(-c3ccccn3)cs2)oc2ccccc12,25 to 50%
7,c1ccc(-c2csc3nc(-c4ccccn4)nc(NCc4ccccn4)c23)cc1,25 to 50%
8,CC(C)COC(C)c1noc(CN(Cc2ccccc2O)C(C)c2ccccc2)n1 (centres unmarked),1 to 25%
9,Cc1cc(C2CCCN2c2cc(C(F)(F)F)nc3ncnn23)no1 (centres unmarked),1 to 25%
10,O=C(Nc1nnc(-c2ccccn2)[nH]1)C1CC(c2ccccc2)C1 (centres unmarked),25 to 50%
11,O=C(CCc1ccccn1)Nc1nnc(-c2ccccn2)[nH]1,25 to 50%
12,O=C(NCCc1ccc(O)nc1)c1csc2nc(-c3ccccn3)nc(N3CCOCC3)c12 [drawing 2809],1 to 25%
13,COCCCC1CCN(C(=O)c2csc3c(O)nc(N)nc23)CC1 [drawing 2661],25 to 50%
14,O=C(c1csc2c(O)nc(-c3ccccn3)nc12)N1CCN(c2cccc(O)c2)CC1,25 to 50%
15,O=C(Nc1nc(-c2ccccn2)cs1)c1cc(F)cc(F)c1,1 to 25%
16,O=C(Nc1nnc(-c2ccccn2)[nH]1)C1CCCN(C(=O)c2ccoc2)C1 (centres unmarked),25 to 50%
17,Nc1nc(O)c2scc(Br)c2n1 [drawing 2657],1 to 25%
18,Oc1nc(-c2ccccn2)nc2c(C3CCNCC3)csc12 [drawing 2711],51 to 75%
19,COc1cc(F)ccc1N1CCN(C(=O)c2csc3c(O)nc(-c4ccccn4)nc23)CC1,25 to 50%
20,O=c1[nH]c(-c2cc(OCC(F)F)ccn2)nc2cc(F)ccc12,51 to 75%
21,CN(C)c1ccccc1NCc1cc(Br)c2c(c1)OCCCO2,25 to 50%
22,CC(c1ccc(Cl)cc1Cl)N(C)Cc1nnc(-c2ccccc2)o1 (centres unmarked),25 to 50%
23,N#Cc1csc2nc(-c3ccccn3)nc(N3CCOCC3)c12 [drawing 2819],25 to 50%
24,COC(=O)c1cccc(NCc2nc(CC(C)C)no2)c1,25 to 50%

# Results, then the compound that gave them:
row,inhibition at 20 µM,SMILES
1,25 to 50%,CCC(C)c1ccc(S(=O)(=O)N(C)C(c2ccccc2)c2ccccn2)cc1 (centres unmarked)
2,1 to 25%,Cc1ccc(C)c(OCC(O)CN(c2nccs2)S(=O)(=O)c2ccccc2)c1 (centres unmarked)
3,25 to 50%,CC(Oc1ccc(F)cc1)c1nnc(SCCOc2ccc(F)cc2)o1 (centres unmarked)
4,1 to 25%,O=S(=O)(c1ccccc1)N1CCCc2c(O)nc(-c3ccccn3)nc21 [drawing 2652]
5,1 to 25%,O=C(Nc1nnc(-c2ccccn2)s1)c1nccc2ccccc12
6,25 to 50%,COCCn1c(SCc2csc(-c3ccccc3)n2)nc2ccccc21
7,25 to 50%,Cc1cc(NCCNC(=O)Cc2ccccc2)nc(-c2ccccn2)n1
8,25 to 50%,O=C(CCNS(=O)(=O)c1ccc2c(c1)CCCC2)Nc1nnc(-c2ccccn2)[nH]1
9,25 to 50%,CCN(CC(=O)Nc1ccc(OC)cc1)Cc1coc(-c2ccc(C)cc2C)n1
10,25 to 50%,CCN(CC)S(=O)(=O)c1ccc(N2CCCC2)c(C(=O)NCCCn2cnc3ccccc32)c1
11,25 to 50%,CCc1ccc(-c2nc(C)c(C(=O)N(Cc3ccco3)C3CCS(=O)(=O)C3)s2)cc1 (centres unmarked)
12,25 to 50%,CN(C(=O)c1ccc(COc2ccccc2F)o1)c1nccs1
13,25 to 50%,CN(C)S(=O)(=O)c1ccc(CN2CCCc3cc(OC(F)(F)F)ccc32)o1
14,25 to 50%,Cc1oc(-c2ccccc2)nc1CN(C)CC(=O)Nc1ccc(N2CCOCC2)cc1
15,25 to 50%,Cc1nc(CN(Cc2ccccc2)Cc2ccccc2)no1
16,1 to 25%,CN(C(=O)c1ccc(COc2ccccc2)o1)C1CCCCC1
17,1 to 25%,CN(CC(=O)N1CCOCC1)C(=O)c1ccc(COc2ccc(F)cc2)o1
18,25 to 50%,O=C(Nc1nnc(-c2ccccn2)[nH]1)c1ccc(N2CCCCC2=O)cc1
19,25 to 50%,CCCN(CC1CC1)S(=O)(=O)Oc1cccc(C(=O)NCc2ccccc2)c1

# Same assay, conditions: 20 μM; read-out: KRas G12D Q61H % Inh.
row,SMILES,inhibition at 20 µM
1,COc1ccc(NC(=O)CCc2c(C)nc(-c3ccccn3)nc2O)cn1 [drawing 2594],51 to 75%
2,CCOc1cc(C(=O)Oc2c(C)ccc(C)c2C)cc(OCC)c1OCC [drawing 2622],51 to 75%
3,O=C(Cc1ccc(-n2cnnn2)cc1)Nc1nnc(-c2ccccn2)[nH]1 [drawing 2452],51 to 75%
4,CC1CCc2sc(C(=O)Nc3nnc(-c4ccccn4)[nH]3)cc2C1 (centres unmarked) [drawing 2531],51 to 75%
5,O=C(Nc1nnc(-c2ccccn2)[nH]1)C1CC1c1ccc(F)cc1 (centres unmarked) [drawing 2520],51 to 75%
6,Cc1nc2nc(C(F)(F)F)nn2c(C)c1CC(=O)Nc1nnc(-c2ccccn2)[nH]1 [drawing 2533],51 to 75%
7,COC(=O)c1cc(NC(=O)CCc2c(C)nc(-c3ccccn3)nc2O)ccc1Cl [drawing 2600],51 to 75%
8,CSc1nc(C2CC2)cc(C(=O)NCCc2ccc(S(=O)(=O)NC(=O)c3cc(C4CC4)nc(SC)c3C#N)cc2)c1C#N [drawing 2634],51 to 75%
9,CC(C)C(=O)Nc1nc(CC(=O)Nc2nnc(-c3ccccn3)[nH]2)cs1 [drawing 2541],51 to 75%
10,FC(F)(F)Sc1ccc(Cc2ccc(SC(F)(F)F)cc2)cc1 [drawing 2616],51 to 75%
11,CC(OCc1ccccc1)C(=O)Nc1nnc(-c2ccccn2)[nH]1 (centres unmarked) [drawing 2516],51 to 75%
12,O=C(CCc1c[nH]c2ccccc12)Nc1nnc(-c2ccccn2)[nH]1 [drawing 2471],51 to 75%
13,CC(C)NC(=O)Nc1cccc(C(=O)Nc2nnc(-c3ccccn3)[nH]2)c1 [drawing 2451],51 to 75%

# Now from value to compound:
row,inhibition at 20 µM,SMILES
1,76 to 100%,O=C(COCCOc1ccccc1)Nc1nnc(-c2ccccn2)[nH]1 [drawing 2564]
2,51 to 75%,COc1ccccc1C1CC1C(=O)Nc1nnc(-c2ccccn2)[nH]1 (centres unmarked) [drawing 2535]
3,76 to 100%,O=C(COc1ccccc1)N1CCCc2c(O)nc(-c3ccccn3)nc21 [drawing 2638]

# Same assay, conditions: read-out: KRas G12D Q61H IC50
row,IC50,SMILES
1,< 5 µM,O=C(CCc1c[nH]c2ccccc12)Nc1nnc(-c2ccccn2)[nH]1 [drawing 2471]
